Results on four compounds are retold here after DBAASP.

Molecules are shown by their SMILES. Values after ≈ are worked out from the molar mass of the structure shown. Values joined by “and” are separate entries in the source; they are usually repeats but may differ in a detail not shown here. Identical values can stand only once. Some results are limits rather than exact numbers.

Common to all, as to test: ≥ marks a high value that may be exact or a test limit, other limits are often not marked, values filed in µg/mL are converted to µM
The test system of experiment [1] is Staphylococcus epidermidis.
Experiment [2] relates to Enterococcus faecium.
The subject of experiment [3] is Acinetobacter baumannii.
Experiment [4] concerns Bacillus thuringiensis AB92037.
Experiment [5] has as its system Pseudomonas aeruginosa A093056.
Experiment [6] deals with Enterococcus faecalis ATCC 29212.
Experiment [7] deals with Pseudomonas aeruginosa ATCC 27853.
Experiment [8] relates to Staphylococcus epidermidis P1389.
Experiment [9] deals with Staphylococcus epidermidis P1111.
Experiment [10] concerns Pseudomonas aeruginosa A093115.
In experiment [11] the test system is Staphylococcus aureus NBRC 100910.
For experiment [12], the system named is Escherichia coli ATCC 35218.
In experiment [13] the test system is Staphylococcus aureus AB94004.
Experiment [14] concerns Staphylococcus aureus.
Experiment [15] deals with Micrococcus luteus AB93113.
The subject of experiment [16] is Pseudomonas aeruginosa AB93066.
In experiment [17] the test system is Escherichia coli AB94012.
Experiment [18] concerns Pseudomonas aeruginosa A093085.
The test system of experiment [19] is Staphylococcus aureus P1369.
The subject of experiment [20] is Klebsiella pneumoniae.
In experiment [21] the test system is Escherichia coli ATCC 25922.
In experiment [22] the test system is Pseudomonas aeruginosa A092994.
The test system of experiment [23] is Staphylococcus aureus ATCC 29213.
Experiment [24] relates to Staphylococcus aureus ATCC 25923.
Experiment [25] relates to Bacillus subtilis AB91021.
In experiment [26] the test system is Pseudomonas aeruginosa.
The test system of experiment [27] is Acinetobacter baumannii ATCC 19606.
Experiment [28] deals with Enterococcus faecalis.
Experiment [29] deals with Pseudomonas aeruginosa A093052.
In experiment [30] the test system is Staphylococcus aureus P1374.
For experiment [31], the system named is Staphylococcus aureus P1381.
Experiment [32] has as its system Klebsiella pneumoniae ATCC 700603.
The subject of experiment [33] is Staphylococcus aureus P1383.
The test system of experiment [34] is Escherichia coli.
Experiment [35] deals with Micrococcus luteus CGMCC 1.0290.
Experiment [36] relates to Bacillus megaterium CGMCC 1.0459.
Experiment [37] has as its system Schizosaccharomyces pombe.
Experiment [38] relates to Acinetobacter junii RT-4.
The subject of experiment [39] is Escherichia coli D21.
In experiment [40] the test system is Pseudomonas aeruginosa ATCC 15692.
The test system of experiment [41] is Bacillus megaterium Bm11.
Experiment [42] has as its system Candida albicans ATCC 10231.
The subject of experiment [43] is Streptococcus pyogenes ATCC 21547.
In experiment [44] the test system is Staphylococcus capitis 1.
For experiment [45], the system named is Staphylococcus aureus Cowan 1.
Experiment [46] concerns Pseudomonas syringae pv. tabaci 1918NCPPB.
For experiment [47], the system named is Saccharomyces cerevisiae.
Experiment [48] concerns Staphylococcus epidermidis ATCC 12228.
Experiment [49] deals with Yersinia pseudotuberculosis YPIII.
For experiment [50], the system named is Staphylococcus epidermidis ATCC 35984.
In experiment [51] the test system is Staphylococcus aureus USA 300.

Take `CC[C@H](C)[C@H](NC(=O)[C@H](CCCN=C(N)N)NC(=O)[C@H](CCCCN)NC(=O)[C@@H](NC(=O)[C@@H](N)Cc1ccccc1)[C@@H](C)CC)C(=O)N[C@@H](C)C(=O)N[C@@H](CCCN=C(N)N)C(=O)N[C@@H](CC(C)C)C(=O)N[C@@H](CC(C)C)C(=O)N[C@@H](CCCN=C(N)N)C(=O)N[C@@H](CCCCN)C(=O)N[C@H](C(=O)N[C@@H](Cc1ccccc1)C(N)=O)[C@@H](C)CC` [FIKRIARLLRKIF]: the MIC in experiment [1] was 2.11 µM (≈ 3.53 µg/mL); in experiment [2], 2.99 µM (≈ 5 µg/mL); in experiment [3], 4.22 µM (≈ 7.07 µg/mL); in [4], 3.73 µM (≈ 6.25 µg/mL); in experiment [5], 29.9 µM (≈ 50 µg/mL); in experiment [6] it was 2.99 µM (≈ 5 µg/mL). Moreover, the MIC in experiment [7] is 5.97 µM (≈ 9.99 µg/mL); in experiment [8] it was 3.73 µM (≈ 6.25 µg/mL); in [9], 1.87 µM (≈ 3.13 µg/mL); in experiment [10], ≥ 59.7 µM; in [11], 2.39 µM (≈ 4 µg/mL); in [12], 5.97 µM (≈ 9.99 µg/mL). For the same compound, the MIC in [13] was 1.87 µM (≈ 3.13 µg/mL); in experiment [14] it was 2.11 µM (≈ 3.53 µg/mL); in experiment [15], 3.73 µM (≈ 6.25 µg/mL); in experiment [16] it was 14.9 µM (≈ 25 µg/mL); in [17], 3.73 µM (≈ 6.25 µg/mL); in experiment [18], 29.9 µM (≈ 50 µg/mL). The MIC in experiment [19] was 1.87 µM (≈ 3.13 µg/mL); in [20], 5.97 µM (≈ 9.99 µg/mL); in experiment [21], 14.9 µM and 5.97 µM; in experiment [22], 29.9 µM (≈ 50 µg/mL); in [23], 2.99 µM (≈ 5 µg/mL); in [24], 1.87 µM (≈ 3.13 µg/mL). Further, the MIC was 3.73 µM (≈ 6.25 µg/mL) in experiment [25]; 8.45 µM (≈ 14.1 µg/mL) in experiment [26]; 2.99 µM (≈ 5 µg/mL) in experiment [27]; 5.97 µM (≈ 9.99 µg/mL) in experiment [28]; ≥ 59.7 µM in experiment [29]; 1.87 µM (≈ 3.13 µg/mL) in experiment [30]. Moreover, the MIC came out at 3.73 µM (≈ 6.25 µg/mL) in experiment [31], 5.97 µM (≈ 9.99 µg/mL) in experiment [32], 3.73 µM (≈ 6.25 µg/mL) in [33] and 8.45 µM (≈ 14.1 µg/mL) in [34].

As for `CC(C)C[C@@H]1NC(=O)[C@@H]2CSSC[C@@H](C(=O)N[C@@H](CCCN=C(N)N)C(=O)O)NC(=O)[C@H](C(C)C)NC(=O)[C@@H]3CSSC[C@H](NC(=O)[C@H](C)NC(=O)[C@H](CO)NC(=O)[C@H](Cc4cnc[nH]4)NC(=O)[C@H](CC(N)=O)NC(=O)[C@@H]4CCCN4C(=O)[C@H](CO)NC(=O)[C@H](C(C)C)NC(=O)[C@H](Cc4c[nH]c5ccccc45)NC(=O)[C@H](CCCCN)NC(=O)[C@H](CO)NC(=O)[C@H](CCC(N)=O)NC(=O)[C@H](Cc4ccccc4)NC(=O)[C@H](CO)NC(=O)[C@H](CC(C)C)NC(=O)[C@H](C(C)C)NC(=O)[C@H](CC(=O)O)NC(=O)[C@@H](NC(=O)[C@H](CO)NC(=O)[C@@H](N)Cc4ccccc4)CSSC[C@H](NC(=O)[C@H](CCCCN)NC(=O)CNC(=O)CNC(=O)[C@H](CCCCN)NC(=O)[C@H](CCCN=C(N)N)NC(=O)[C@H](CCCN=C(N)N)NC(=O)[C@H](CCC(N)=O)NC(=O)[C@H](C)NC1=O)C(=O)N[C@@H](CCCCN)C(=O)N[C@@H](CC(N)=O)C(=O)NCC(=O)N[C@@H](CC(=O)O)C(=O)N3)C(=O)N[C@@H](C)C(=O)N[C@@H](C(C)C)C(=O)N[C@@H](CCCN=C(N)N)C(=O)N2` [FSCDVLSFQSKWVSPNHSACAVRCLAQRRKGGKCKNGDCVCR], the MIC in [35] stood at 4.54 µM (≈ 21.1 µg/mL); in experiment [36] it was 1.5 µM (≈ 6.96 µg/mL).

Turning to `CC[C@H](C)[C@H](NC(=O)[C@H](CCCCN)NC(=O)CNC(=O)[C@H](CC(C)C)NC(=O)[C@H](Cc1ccccc1)NC(=O)[C@H](CCCCN)NC(=O)[C@H](CO)NC(=O)[C@H](Cc1ccccc1)NC(=O)[C@H](Cc1c[nH]c2ccccc12)NC(=O)[C@H](CCC(N)=O)NC(=O)[C@@H](NC(=O)[C@@H](N)Cc1ccccc1)C(C)C)C(=O)N[C@@H](CC(C)C)C(N)=O` [FVQWFSKFLGKIL], the MIC is 12 µM (≈ 19.3 µg/mL) in experiment [6]; 6 µM (≈ 9.67 µg/mL) in [37]; 6 µM (≈ 9.67 µg/mL) in experiment [38]; 24 µM (≈ 38.7 µg/mL) in experiment [39]; 48 µM (≈ 77.4 µg/mL) in [7]; 24 µM (≈ 38.7 µg/mL) in [40]. For the same compound, the minimum inhibitory concentration (MIC) in experiment [41] was determined as 3 µM (≈ 4.84 µg/mL); in experiment [42], 12 µM (≈ 19.3 µg/mL); in experiment [43] it was 6 µM (≈ 9.67 µg/mL); in experiment [44], 6 µM (≈ 9.67 µg/mL); in experiment [45], 12 µM (≈ 19.3 µg/mL); in [46], 24 µM (≈ 38.7 µg/mL). Also, the MIC in [21] is 12 µM (≈ 19.3 µg/mL); in [24] it was 6 µM (≈ 9.67 µg/mL); in [47], 6 µM (≈ 9.67 µg/mL); in experiment [48], 6 µM (≈ 9.67 µg/mL); in experiment [49], 6 µM (≈ 9.67 µg/mL); in experiment [27], 6 µM (≈ 9.67 µg/mL).

As to `CC[C@H](C)[C@H](NC(=O)[C@H](C)NC(=O)[C@H](CCCCN)NC(=O)[C@@H](NC(=O)[C@@H](NC(=O)[C@H](CCCCN)NC(=O)[C@@H](NC(=O)[C@@H](NC(=O)[C@@H](NC(=O)CNC(=O)[C@@H](N)C(C)C)[C@@H](C)O)[C@@H](C)CC)[C@@H](C)CC)[C@@H](C)CC)[C@@H](C)CC)C(=O)N[C@H](C(=O)N[C@@H](CC(=O)O)C(=O)N[C@H](C(=O)N[C@@H](Cc1ccccc1)C(=O)N[C@@H](C)C(=O)N[C@@H](CCCCN)C(=O)O)[C@@H](C)CC)[C@@H](C)CC` [VGTIIKIIKAIIDIFAK], the MIC in experiment [50] and in experiment [51] was ≥ 64 µM in each case.

As a reminder, the MIC is the least concentration at which growth counts as inhibited.
